A short description of test [1]: Cytotoxicity against sea urchin egg. The test is classed as functional, Strongylocentrotus intermedius.
A short description of test [2]: Cytotoxicity against mouse EAC. The test is classed as functional, cell-based. Conditions: Ehrlich.

SMILES strings stand for the structures.

One may read the IC50 as the concentration at which inhibition is half-maximal. Low values mean higher potency, high ones lower potency. In the case of `C=C[C@]1(C)C=C2C(=O)C[C@@H]3[C@](C)(CCC(=O)[C@]3(C)CO[C@@H]3O[C@H](CO)[C@@H](O)[C@@H](O)[C@@H]3O)[C@H]2CC1`, the IC50 in test [1] was 100 µM; in test [2], 25 µM.
Taken in the same sequence, the figures for `C=C[C@]1(C)C=C2[C@H](O)C[C@@H]3[C@](C)(CCC(=O)[C@]3(C)CO[C@@H]3O[C@H](CO)[C@@H](O)[C@@H](O)[C@@H]3O)[C@H]2CC1` were 100 µM and 25 µM.
Consider `C=C[C@@]1(C)CCC2=C(C1)C(=O)C[C@H]1[C@@](C)(CO[C@@H]3O[C@H](CO)[C@@H](O)[C@@H](O)[C@@H]3O)C(=O)CC[C@]21C`, for which the IC50 in test [1] worked out at 100 µM; in test [2] it was 25 µM.
For `C=C[C@@]1(C)CC[C@H]2C(=CC[C@@H]3[C@]2(C)C[C@@H](O)[C@H](O)[C@]3(C)CO[C@@H]2O[C@H](CO[C@H]3O[C@H](CO)[C@@H](O)[C@H](O)[C@H]3O)[C@@H](O)[C@@H](O)[C@@H]2O)C1` [VIRESCENOSIDE R] the same measures were 100 µM and 25 µM.
